Data set [1] has as its target T1, Voltage-dependent N-type calcium channel subunit alpha-1B (Homo sapiens, UniProt Q00975). The data set is described as follows: Inhibition of N-type calcium channel (VSCC) in IMR-32 at 10 uM.
Target sequence in this assay (Q00975 whole entry): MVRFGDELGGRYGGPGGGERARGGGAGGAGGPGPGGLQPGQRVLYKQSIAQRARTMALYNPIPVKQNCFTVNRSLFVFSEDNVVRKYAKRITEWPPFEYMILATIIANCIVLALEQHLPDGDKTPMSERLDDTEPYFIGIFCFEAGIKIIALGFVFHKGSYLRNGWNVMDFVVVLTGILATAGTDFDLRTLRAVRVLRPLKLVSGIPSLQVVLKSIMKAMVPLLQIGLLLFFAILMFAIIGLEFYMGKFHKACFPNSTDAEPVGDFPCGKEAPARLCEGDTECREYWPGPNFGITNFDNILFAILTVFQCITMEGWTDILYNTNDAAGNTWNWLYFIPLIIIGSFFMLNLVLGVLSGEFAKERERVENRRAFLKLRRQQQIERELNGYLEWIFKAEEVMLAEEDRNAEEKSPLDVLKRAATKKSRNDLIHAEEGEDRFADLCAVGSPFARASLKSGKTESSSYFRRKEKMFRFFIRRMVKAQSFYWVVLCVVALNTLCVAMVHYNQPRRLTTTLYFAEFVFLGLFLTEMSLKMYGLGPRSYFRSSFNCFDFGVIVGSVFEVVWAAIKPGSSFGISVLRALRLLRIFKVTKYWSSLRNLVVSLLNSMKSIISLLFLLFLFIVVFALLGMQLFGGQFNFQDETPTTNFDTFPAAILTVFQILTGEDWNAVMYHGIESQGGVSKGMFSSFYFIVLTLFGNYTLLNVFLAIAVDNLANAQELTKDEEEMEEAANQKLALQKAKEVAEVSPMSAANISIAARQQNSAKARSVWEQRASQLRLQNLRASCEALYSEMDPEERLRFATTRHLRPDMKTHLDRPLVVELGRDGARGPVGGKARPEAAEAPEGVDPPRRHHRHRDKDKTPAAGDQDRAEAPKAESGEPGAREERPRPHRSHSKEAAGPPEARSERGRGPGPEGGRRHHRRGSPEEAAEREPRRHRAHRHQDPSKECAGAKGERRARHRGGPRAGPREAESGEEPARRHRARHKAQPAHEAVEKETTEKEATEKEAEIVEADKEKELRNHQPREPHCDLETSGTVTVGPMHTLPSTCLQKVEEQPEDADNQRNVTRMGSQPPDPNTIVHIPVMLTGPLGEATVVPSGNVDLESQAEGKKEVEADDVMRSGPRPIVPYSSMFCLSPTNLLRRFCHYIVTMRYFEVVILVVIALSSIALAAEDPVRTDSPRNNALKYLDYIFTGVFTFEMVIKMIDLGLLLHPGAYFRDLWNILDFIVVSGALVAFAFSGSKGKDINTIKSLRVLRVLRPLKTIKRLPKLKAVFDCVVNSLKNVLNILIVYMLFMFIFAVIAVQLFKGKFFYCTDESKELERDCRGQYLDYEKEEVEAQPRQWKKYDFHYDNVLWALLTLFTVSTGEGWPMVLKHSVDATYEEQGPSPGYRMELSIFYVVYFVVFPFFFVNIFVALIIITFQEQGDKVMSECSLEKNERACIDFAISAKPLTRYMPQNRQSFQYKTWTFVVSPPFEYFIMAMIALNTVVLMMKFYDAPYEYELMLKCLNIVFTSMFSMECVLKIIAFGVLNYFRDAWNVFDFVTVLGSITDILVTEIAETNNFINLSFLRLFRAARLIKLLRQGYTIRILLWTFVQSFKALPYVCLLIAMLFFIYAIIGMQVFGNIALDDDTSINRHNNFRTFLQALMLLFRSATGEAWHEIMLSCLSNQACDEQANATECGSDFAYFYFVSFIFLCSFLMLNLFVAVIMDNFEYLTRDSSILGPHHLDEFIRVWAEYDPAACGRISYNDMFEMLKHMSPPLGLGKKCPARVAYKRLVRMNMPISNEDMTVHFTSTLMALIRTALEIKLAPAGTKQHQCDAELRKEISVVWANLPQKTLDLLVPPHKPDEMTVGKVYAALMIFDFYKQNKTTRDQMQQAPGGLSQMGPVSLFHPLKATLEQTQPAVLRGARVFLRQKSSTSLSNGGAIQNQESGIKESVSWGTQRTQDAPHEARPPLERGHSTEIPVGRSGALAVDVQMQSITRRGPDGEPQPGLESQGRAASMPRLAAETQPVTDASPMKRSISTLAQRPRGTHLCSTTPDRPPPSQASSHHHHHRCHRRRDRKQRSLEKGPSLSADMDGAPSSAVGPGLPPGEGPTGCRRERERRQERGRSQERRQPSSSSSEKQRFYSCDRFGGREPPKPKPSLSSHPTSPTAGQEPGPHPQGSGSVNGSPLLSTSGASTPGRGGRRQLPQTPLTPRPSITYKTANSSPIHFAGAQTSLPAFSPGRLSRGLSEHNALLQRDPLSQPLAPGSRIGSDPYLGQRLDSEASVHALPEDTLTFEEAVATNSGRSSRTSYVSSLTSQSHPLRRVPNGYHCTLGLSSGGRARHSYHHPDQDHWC
The target in data set [2] is T2, Voltage-gated L-type calcium channel (Rattus norvegicus, UniProt P22002+Q02485+P27732). The data set is described as follows: Inhibition of L-type [Ca2+] channel (VSCC) in rat A7r5 vascular smooth muscle cells.
The target in data set [3] is T2, Voltage-gated L-type calcium channel. Described as above. This is another data set of the same source.
In data set [4] the target is T1, Voltage-dependent N-type calcium channel subunit alpha-1B. The data set can be described thus: Inhibition of N-type calcium channel (VSCC) in IMR-32 at 10 uM.
Target sequence in this assay (Q00975 whole entry, looked up): as the sequence (Q00975 whole entry) above

Consider `CC(C)Oc1cc(OCCc2ccc(C(=N)N)cc2)cc(OCc2ccccc2CCc2ccc(O)cc2)c1`, for which the IC50 (in general, the concentration at which inhibition is half-maximal) was 3.3 µM in data set [1] and 4.2 µM in data set [2].

For `CC(C)CCOc1cc(OCCCc2ccccc2OCCCc2ccc(O)cc2)cc(OCCc2ccc(C(=N)N)cc2)c1`, the Inhibition (commonly the drop in the measured response relative to a control, in per cent) in data set [3] is given as 69%. Moreover, the inhibition (usually the change of the read-out against control, counted positive when it falls) in data set [4] stood at 19%.

For the compound `CC(C)Oc1cc(OCCc2ccc(C(=N)N)cc2)cc(OCc2ccccc2CCc2cccc(O)c2)c1`, the IC50 is 2.7 µM in data set [1] and 3 µM in data set [2].

Source of the values: ChEMBL document CHEMBL1133151 (2000).
